Patent US20240269139A1, “COMPOUNDS FOR TARGETED PROTEIN DEGRADATION OF KINASES” (DANA-FARBER CANCER INSTITUTE, INC., priority 2020, published 2024)
Where two headings read alike, the source gives them in different places.

Legend:
Type in all cases: cell-based
[1] = tested on: protein kinases (human kinome); details: for kinases the bifunctional compound degrades: as stated for the structure in the embodiments; for Kinase hits: kinases significantly downregulated vs DMSO (fold change cutoff −1.25, P-value<0.01), ≤8 h, 0.1-5 μM degrader, 7 cell lines; for Total no. kinase hits: number of degraded kinases per library compound
Text: (§1) Although development of targeted protein degraders requires a POI binder, among already-liganded proteins such as kinases, it was hypothesized that different targets would have a different propensity for current approaches to degrader-mediated destruction, which was termed ‘degradability’. […] It was rationalized that the probability of identifying the same kinase as a false positive in multiple treatments is low, therefore this analysis served to also assess the robustness of our data and subsequent interpretations. […] Overall, 62 protein kinases were degraded in more than 10 independent treatments, and remarkably, 9 of these (CDK4, AURKA, FER, WEE1, BLK. LIMK2, CDK6, GAK, LIMK1) were each degraded in at least 40 of the 154 independent treatments, emphasizing their predisposition to induced degradation (FIG. 1G; Appendix I).
(§2) Next, the frequency of degradation assessment was corrected for over-representation of molecules in the full dataset by omitting replicate profiling of compounds under different experimental conditions, to remove any bias. […] Unsurprisingly, the top degradable kinases mirror those from the previous analysis (CDK4, AURKA, FER, WEE1, BLK), confirming that in sufficiently large datasets, even with over-representation of certain molecules, frequency of degradation is a good measure of general tractability.

[2] = target: protein kinases (human kinome) (Homo sapiens, UniProt P16591)
Sequence of protein kinases (human kinome) (Homo sapiens, UniProt P16591) (P16591 whole entry): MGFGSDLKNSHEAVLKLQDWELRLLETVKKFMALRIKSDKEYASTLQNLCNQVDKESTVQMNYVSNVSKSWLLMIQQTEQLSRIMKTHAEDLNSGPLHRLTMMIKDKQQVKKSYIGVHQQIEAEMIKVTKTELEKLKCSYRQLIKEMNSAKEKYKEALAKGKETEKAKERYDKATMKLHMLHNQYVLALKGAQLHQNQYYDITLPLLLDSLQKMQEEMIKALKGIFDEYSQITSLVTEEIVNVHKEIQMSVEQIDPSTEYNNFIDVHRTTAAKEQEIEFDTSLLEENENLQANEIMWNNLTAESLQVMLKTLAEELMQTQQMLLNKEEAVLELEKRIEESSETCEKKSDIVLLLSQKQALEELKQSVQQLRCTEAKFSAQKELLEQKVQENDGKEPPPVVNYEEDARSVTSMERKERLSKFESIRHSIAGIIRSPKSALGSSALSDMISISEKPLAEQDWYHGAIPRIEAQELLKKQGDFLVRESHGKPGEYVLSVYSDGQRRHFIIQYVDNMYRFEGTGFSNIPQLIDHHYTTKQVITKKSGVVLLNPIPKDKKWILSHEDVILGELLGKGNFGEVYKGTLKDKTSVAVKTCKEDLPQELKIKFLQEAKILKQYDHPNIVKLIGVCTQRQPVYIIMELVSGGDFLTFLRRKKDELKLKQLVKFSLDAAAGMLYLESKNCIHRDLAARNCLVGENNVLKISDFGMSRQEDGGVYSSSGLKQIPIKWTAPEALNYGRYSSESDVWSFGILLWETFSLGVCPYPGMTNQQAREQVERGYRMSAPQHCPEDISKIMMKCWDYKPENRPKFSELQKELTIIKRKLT
Text: as §1, §2

[3] = target: protein kinases (human kinome) (Homo sapiens, UniProt Q00537)
Sequence of protein kinases (human kinome) (Homo sapiens, UniProt Q00537) (Q00537 whole entry): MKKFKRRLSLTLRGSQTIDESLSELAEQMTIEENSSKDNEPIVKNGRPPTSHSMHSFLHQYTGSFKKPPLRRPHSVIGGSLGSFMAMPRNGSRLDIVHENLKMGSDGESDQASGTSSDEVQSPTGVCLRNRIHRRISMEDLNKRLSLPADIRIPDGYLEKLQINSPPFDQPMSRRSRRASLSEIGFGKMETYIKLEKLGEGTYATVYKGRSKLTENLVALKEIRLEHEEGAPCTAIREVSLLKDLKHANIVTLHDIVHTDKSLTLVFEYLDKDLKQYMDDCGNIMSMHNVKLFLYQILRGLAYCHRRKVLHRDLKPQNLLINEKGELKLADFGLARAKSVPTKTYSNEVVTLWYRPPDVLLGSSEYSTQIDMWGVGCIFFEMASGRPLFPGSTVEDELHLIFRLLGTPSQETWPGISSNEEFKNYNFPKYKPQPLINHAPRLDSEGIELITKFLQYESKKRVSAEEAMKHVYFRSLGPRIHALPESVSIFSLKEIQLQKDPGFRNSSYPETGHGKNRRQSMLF
Text: as §1, §2

[4] = target: protein kinases (human kinome) (Homo sapiens, UniProt P30291); details: WEE1 P30291-1; experiment wp076; degrader vs DMSO
Sequence of protein kinases (human kinome) (Homo sapiens, UniProt P30291) (P30291 whole entry): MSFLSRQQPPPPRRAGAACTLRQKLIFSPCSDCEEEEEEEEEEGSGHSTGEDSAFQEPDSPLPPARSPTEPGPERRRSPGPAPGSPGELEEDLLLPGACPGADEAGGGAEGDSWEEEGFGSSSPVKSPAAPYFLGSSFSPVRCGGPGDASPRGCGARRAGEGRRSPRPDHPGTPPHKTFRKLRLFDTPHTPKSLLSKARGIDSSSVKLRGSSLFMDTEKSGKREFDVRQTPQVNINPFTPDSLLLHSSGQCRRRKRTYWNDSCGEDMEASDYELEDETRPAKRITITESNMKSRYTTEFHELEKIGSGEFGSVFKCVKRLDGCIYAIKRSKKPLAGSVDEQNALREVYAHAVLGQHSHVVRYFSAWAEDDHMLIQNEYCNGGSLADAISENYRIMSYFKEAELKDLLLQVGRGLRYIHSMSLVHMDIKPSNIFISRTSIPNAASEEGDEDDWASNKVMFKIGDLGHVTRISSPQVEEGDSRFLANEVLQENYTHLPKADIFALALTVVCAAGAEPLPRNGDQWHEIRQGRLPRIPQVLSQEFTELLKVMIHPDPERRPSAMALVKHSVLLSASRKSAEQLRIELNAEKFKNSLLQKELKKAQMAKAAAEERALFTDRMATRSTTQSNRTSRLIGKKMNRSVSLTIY
Text: as §1, §2

[5] = target: T1, protein kinases (human kinome) (Homo sapiens, UniProt O14976)
T1 sequence (O14976 1-1311): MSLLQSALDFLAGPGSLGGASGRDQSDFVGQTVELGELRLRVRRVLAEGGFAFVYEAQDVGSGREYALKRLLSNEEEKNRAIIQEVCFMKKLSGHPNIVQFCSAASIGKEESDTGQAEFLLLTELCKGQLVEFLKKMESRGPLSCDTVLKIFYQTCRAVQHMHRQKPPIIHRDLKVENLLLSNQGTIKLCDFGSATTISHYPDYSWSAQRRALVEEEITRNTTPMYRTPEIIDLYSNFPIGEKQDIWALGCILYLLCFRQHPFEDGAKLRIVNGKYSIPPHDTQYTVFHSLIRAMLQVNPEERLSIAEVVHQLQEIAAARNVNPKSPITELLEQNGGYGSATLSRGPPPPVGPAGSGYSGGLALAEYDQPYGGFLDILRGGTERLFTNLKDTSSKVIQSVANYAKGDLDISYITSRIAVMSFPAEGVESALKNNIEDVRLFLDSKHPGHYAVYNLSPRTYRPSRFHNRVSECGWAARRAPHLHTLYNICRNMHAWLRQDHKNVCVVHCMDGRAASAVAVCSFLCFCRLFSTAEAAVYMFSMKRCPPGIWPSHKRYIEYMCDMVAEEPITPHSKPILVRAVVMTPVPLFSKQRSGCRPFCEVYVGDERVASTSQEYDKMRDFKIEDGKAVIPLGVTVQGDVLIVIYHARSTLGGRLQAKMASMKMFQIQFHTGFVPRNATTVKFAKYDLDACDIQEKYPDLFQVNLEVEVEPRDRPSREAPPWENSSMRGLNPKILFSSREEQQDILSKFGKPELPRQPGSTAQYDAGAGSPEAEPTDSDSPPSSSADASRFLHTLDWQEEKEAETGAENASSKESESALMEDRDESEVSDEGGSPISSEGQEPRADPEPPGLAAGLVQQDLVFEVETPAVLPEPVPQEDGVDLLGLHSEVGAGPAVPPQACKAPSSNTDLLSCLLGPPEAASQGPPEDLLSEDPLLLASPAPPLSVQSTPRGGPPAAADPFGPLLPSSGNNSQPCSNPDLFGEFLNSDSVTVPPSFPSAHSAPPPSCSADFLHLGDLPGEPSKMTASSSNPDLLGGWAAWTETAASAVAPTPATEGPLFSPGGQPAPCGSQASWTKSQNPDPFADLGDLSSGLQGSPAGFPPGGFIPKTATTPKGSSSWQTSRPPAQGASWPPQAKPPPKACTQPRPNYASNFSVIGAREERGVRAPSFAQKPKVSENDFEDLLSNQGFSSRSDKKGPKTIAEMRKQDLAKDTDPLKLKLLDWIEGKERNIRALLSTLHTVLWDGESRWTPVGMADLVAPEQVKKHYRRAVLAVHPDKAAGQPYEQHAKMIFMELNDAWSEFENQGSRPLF
Text: as §1, §2

[6] = target: protein kinases (human kinome) (Homo sapiens, UniProt Q2M2I8); details: experiment wp088
Sequence of protein kinases (human kinome) (Homo sapiens, UniProt Q2M2I8) (Q2M2I8 whole entry): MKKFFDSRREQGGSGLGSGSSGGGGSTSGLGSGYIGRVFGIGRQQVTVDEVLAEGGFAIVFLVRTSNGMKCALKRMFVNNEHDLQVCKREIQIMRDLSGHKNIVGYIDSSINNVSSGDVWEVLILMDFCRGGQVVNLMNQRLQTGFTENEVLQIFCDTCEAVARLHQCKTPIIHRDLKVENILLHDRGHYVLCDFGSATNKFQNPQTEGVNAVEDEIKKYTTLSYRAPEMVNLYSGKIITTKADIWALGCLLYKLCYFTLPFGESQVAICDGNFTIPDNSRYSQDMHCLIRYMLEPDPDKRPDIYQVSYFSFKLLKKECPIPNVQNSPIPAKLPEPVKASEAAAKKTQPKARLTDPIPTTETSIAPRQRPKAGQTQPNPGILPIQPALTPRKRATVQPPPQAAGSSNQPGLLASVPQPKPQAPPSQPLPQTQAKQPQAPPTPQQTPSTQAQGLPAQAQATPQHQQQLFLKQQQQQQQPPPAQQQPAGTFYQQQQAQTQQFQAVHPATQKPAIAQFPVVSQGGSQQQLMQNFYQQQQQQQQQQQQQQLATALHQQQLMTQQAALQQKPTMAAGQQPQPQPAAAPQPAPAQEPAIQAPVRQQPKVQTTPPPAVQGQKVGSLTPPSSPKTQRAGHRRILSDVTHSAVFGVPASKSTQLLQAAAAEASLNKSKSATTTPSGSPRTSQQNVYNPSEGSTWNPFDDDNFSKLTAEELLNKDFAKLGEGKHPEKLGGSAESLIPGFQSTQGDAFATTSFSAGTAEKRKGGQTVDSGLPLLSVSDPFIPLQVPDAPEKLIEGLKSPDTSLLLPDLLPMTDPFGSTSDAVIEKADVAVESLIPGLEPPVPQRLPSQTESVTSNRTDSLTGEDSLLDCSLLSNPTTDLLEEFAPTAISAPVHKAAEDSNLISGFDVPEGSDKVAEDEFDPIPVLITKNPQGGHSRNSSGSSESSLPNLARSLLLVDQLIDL
Text: as §1, §2

[7] = target: protein kinases (human kinome) (Homo sapiens, UniProt P53667); details: LIMK1 (P53667-1), experiment wp056
Sequence of protein kinases (human kinome) (Homo sapiens, UniProt P53667) (P53667 whole entry): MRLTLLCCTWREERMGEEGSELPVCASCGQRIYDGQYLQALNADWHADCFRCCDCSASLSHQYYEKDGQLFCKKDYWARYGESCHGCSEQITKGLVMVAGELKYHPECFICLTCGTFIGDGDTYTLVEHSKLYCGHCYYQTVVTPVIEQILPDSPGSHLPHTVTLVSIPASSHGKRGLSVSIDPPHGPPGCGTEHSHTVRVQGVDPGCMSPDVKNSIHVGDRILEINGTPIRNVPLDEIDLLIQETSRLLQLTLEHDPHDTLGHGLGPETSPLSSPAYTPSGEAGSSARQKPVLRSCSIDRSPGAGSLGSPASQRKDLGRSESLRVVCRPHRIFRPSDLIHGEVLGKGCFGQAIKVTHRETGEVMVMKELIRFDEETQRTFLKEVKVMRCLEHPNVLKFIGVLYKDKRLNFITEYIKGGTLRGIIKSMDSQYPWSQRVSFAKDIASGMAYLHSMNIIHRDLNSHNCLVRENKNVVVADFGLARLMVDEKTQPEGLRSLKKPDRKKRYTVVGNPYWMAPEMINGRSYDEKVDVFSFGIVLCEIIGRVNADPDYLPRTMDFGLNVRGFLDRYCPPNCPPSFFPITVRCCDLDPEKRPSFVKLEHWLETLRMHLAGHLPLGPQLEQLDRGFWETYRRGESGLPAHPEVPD
Text: as §1, §2

[8] = target: protein kinases (human kinome) (Homo sapiens, UniProt P53671); details: experiment wp056
Sequence of protein kinases (human kinome) (Homo sapiens, UniProt P53671) (P53671 whole entry): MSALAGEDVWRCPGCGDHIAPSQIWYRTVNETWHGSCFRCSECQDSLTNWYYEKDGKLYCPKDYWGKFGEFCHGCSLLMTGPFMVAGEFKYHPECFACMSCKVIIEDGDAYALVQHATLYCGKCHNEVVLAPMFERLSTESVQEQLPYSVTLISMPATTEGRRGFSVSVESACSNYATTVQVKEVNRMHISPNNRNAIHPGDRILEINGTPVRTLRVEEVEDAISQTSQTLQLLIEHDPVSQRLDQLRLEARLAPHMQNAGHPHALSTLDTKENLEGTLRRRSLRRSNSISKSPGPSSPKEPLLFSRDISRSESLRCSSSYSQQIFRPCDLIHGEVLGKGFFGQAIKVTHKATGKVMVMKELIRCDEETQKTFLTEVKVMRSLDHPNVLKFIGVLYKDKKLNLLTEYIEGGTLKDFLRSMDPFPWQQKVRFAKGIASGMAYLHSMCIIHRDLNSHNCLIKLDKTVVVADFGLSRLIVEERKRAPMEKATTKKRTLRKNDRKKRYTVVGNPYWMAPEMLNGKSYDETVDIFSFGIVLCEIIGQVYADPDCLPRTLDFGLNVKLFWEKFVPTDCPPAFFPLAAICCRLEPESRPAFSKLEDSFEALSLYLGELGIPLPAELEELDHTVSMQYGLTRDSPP
Text: as §1, §2

Structure (SMILES)	kinases the bifunctional compound degrades [1]	Kinase hits [1]	Total no. kinase hits [1]	also measured
Cc1cc(Nc2ncc(Cl)c(Nc3ccccc3S(=O)(=O)C(C)C)n2)c(OC(C)C)cc1C1CCN(CCOCCOCCNC(=O)CNc2cccc3c2C(=O)N(C2CCC(=O)NC2=O)C3=O)CC1 (stereo not shown) [TI13.112]				logFC PTK2 ([1]; Accession Q05397-5, experiment wp012, direction down): −0.6217; logFC RPS6KA1 (Q15418-2) ([1]; RPS6KA1 protein abundance, degrader vs DMSO, experiment wp012): −0.7875; logFC of FER ([2]; FER P16591-1, experiment wp012): −0.5247
CC(C)(C)c1nc(-c2cccc(NS(=O)(=O)c3c(F)cccc3F)c2F)c(-c2ccnc(NCCOCCNC(=O)CCOCCOCCNc3cccc4c3C(=O)N(C3CCC(=O)NC3=O)C4=O)n2)s1 (stereo not shown) [DD-03-106, N-(2-(2-((4-(2-(tert-butyl)-4-(3-((2,6-difluorophenyl)sulfonamido)-2-fluorophenyl)thiazol-5-yl)pyrimidin-2-yl)amino)ethoxy)ethyl)-3-(2-(2-((2-(2,6-dioxopiperidin-3-yl)-1,3-dioxoisoindolin-4-yl)amino)ethoxy)ethoxy)propenamide]	AURKA, BCKDK, CDK1, CDK16, CDK17, CDK2, CDK3, CDK4, CDK6, COQ8A, COQ8B, CSK, EIF2AK2, LIMK1, LIMK2, MAP3K20, NLK, PLK1, PDK1, PDK2, and TESK2	AURKA, BCKDK, CDK1, CDK16, CDK17, CDK2, CDK3, CDK4, CDK6, COQ8A, COQ8B, CSK, EIF2AK2, LIMK1, LIMK2, MAP3K20, NLK, PLK1, PDK1, PDK2, TESK2	21	preference for degrading CDK17 [3]: strong preference for degrading CDK17
CNC(=O)c1ccccc1Nc1cc(Nc2ccc(N3CCN(CCOCCOCCNC(=O)CNc4cccc5c4C(=O)N(C4CCC(=O)NC4=O)C5=O)CC3)cc2OC)ncc1C(F)(F)F (stereo not shown) [MFH.S.103.1]				logFC of WEE1 [4]: −0.9694
Cc1cc(Nc2ncc(Cl)c(Nc3ccccc3S(=O)(=O)C(C)C)n2)c(OC(C)C)cc1C1CCN(CCOCCOCCNC(=O)CNc2cccc3c2C(=O)N(C2CCC(=O)NC2=O)C3=O)CC1 (stereo not shown) [TL13.112]				logFC PTK2 (Q05397-5) ([1]; Experiment wp012, direction of change down): −0.6217; logFC RPS6KA1 ([1]; RPS6KA1 (Q15418-2), experiment wp012): −0.7875; logFC of FER (P16591-1) ([2]; Experiment wp012, down): −0.5247
Cc1cnc(Nc2ccc(N3CCN(CCOCCOCCC(=O)N[C@H](C(=O)N4C[C@H](O)C[C@H]4C(=O)N[C@@H](C)c4ccc(-c5scnc5C)cc4)C(C)(C)C)CC3)cc2)nc1Nc1cccc(S(=O)(=O)NC(C)(C)C)c1 [JWG.122]				logFC of GAK (O14976) ([5]; Experiment wp088, down): −0.3586; logFC GAK ([5]; GAK (O14976), direction down, experiment wp088): −0.3586; logFC AAK1 ([6]; AAK1 (Q2M218-1), down): −0.6335; logFC AAK1 ([6]; AAK1, accession Q2M218-1, direction of change down): −0.6335
Cc1cc(S(=O)(=O)NCCOCCOCCOCCOCCNc2cccc3c2C(=O)N(C2CCC(=O)NC2=O)C3=O)ccc1Nc1ncc(Br)c(Nc2cccc(F)c2C(N)=O)n1 (stereo not shown) [TMX-02-172]		AURKA, AURKB, CDK1, CDK2, CDK5, MAPK8, MAPK9, PTK2, RPS6KA1, RPS6KA3, STK33, TTK	12	
C[C@@H]1C[C@@H](O)c2ncnc(N3CCN(C(=O)[C@H](CNCCCCCCCCNC(=O)COc4cccc5c4C(=O)N(C4CCC(=O)NC4=O)C5=O)c4ccc(Cl)cc4)CC3)c21 (stereo partly shown) [INY-02-164]		AKT1, AKT2, AKT3, BCKDK, PDK1	5	
Cc1c(NC(=O)c2ccc(C(C)(C)C)cc2)cccc1-c1cn(C)c(=O)c(Nc2ccc(C(=O)N3CCN(CCCCCCNC(=O)COc4cccc5c4C(=O)N(C4CCC(=O)NC4=O)C5=O)CC3)cc2)n1 (stereo not shown) [DD-04-118]		BTK	1	
O=C1CCC(N2C(=O)c3cccc(NCCOCCOCCOCCOCCC(=O)Nc4cccc(CN5CCC(NC(=O)c6[nH]ncc6NC(=O)c6c(Cl)cccc6Cl)CC5)c4)c3C2=O)C(=O)N1 (stereo not shown) [FMF-04-147-1]	CDK11A, CDK9, CLK1, GSK3A, GSK3B, PIK3CG, and SGK3	CDK11A, CDK9, CLK1, GSK3A, GSK3B, PIK3CG, SGK3	7	
Cc1ncsc1-c1ccc([C@H](C)NC(=O)[C@@H]2C[C@@H](O)CN2C(=O)[C@@H](NC(=O)CCCCCCc2ccc(Nc3ncc4c(n3)-c3ccccc3NC(=O)N4)cc2)C(C)(C)C)cc1 [JWG-148]	ABL2, EPHB2, SIK2, and TYK2	ABL2, EPHB2, SIK2, TYK2	4	
Cc1ncsc1-c1ccc([C@H](C)NC(=O)[C@@H]2C[C@@H](O)CN2C(=O)[C@@H](NC(=O)CCCCCN2CCc3cc(Nc4ncc(C5CC5)c(NCCCNC(=O)C5CCC5)n4)ccc3C2)C(C)(C)C)cc1 [BSJ-05-026]		AAK1, GAK, MARK2, MARK3, MARK4, RPS6KB1, SIK2, SIK3, SNRK, STKI7A, STKI7B, ULK1, WEE1	13	
C=CCn1c(=O)c2cnc(Nc3ccc(N4CCN(CCCNc5cccc6c5C(=O)N(C5CCC(=O)NC5=O)C6=O)CC4)cc3)nc2n1-c1cccc(C(C)(C)O)n1 (stereo not shown) [ZNL-02-096]		COQ8A, MKNK2, PAK4, PDK1, PDK2, PDK3, PRKCI, TBCK, WEE1	9	
Cc1ncsc1-c1ccc([C@H](C)NC(=O)[C@@H]2C[C@@H](O)CN2C(=O)[C@@H](NC(=O)CCOCCOCCNc2nccc(-c3sc(C(C)(C)C)nc3-c3cccc(NS(=O)(=O)c4c(F)cccc4F)c3F)n2)C(C)(C)C)cc1 [DD.03.156]				logFC LIMK1 ([7]; direction down): −1.037; logFC LIMK1 ([7]; down): −1.037; logFC of CDK17 ([3]; Accession Q00537, experiment wp056): −1.825; logFC CDK17 (Q00537) ([3]; experiment wp056, direction of change down): −1.825; logFC LIMK2 ([8]; LIMK2 (P53671), down): −1.703; logFC of LIMK2 ([8]; LIMK2 P53671): −1.703
Cc1cnc(Nc2ccc(N3CCN(CCOCCOCCNC(=O)COc4cccc5c4C(=O)N(C4CCC(=O)NC4=O)C5=O)CC3)cc2)nc1Nc1cccc(S(=O)(=O)NC(C)(C)C)c1 (stereo not shown) [JWG-118]	AAK1, AURKA, BMP2K, GAK, and WEE1	AAK1, AURKA, BMP2K, GAK, WEE1	5	
CC(C)S(=O)(=O)c1ccccc1Nc1nc(Nc2ccc(N3CCN(CCOCCOCCNC(=O)CNc4ccc5c(c4)C(=O)N(C4CCC(=O)NC4=O)C5=O)CC3)cc2)ncc1Cl (stereo not shown) [LT2-49, N-(2-(2-(2-(4-(4-((5-chloro-4-((2-(isopropylsulfonyl)phenyl)amino)pyrimidin-2-yl)amino)phenyl)piperazin-1-yl)ethoxy)ethoxy)ethyl)-2-((2-(2,6-dioxopiperidin-3-yl)-1,3-dioxoisoindolin-5-yl)amino)acetamide]	CDK4, AURKA, WEE1, BLK, FER, CDK6, LIMK2, AAK1, CDK5, CDK2, ITK, CDK17, LCK, PTK2B, CDK9, CDK7, CDK13, PRKAA1, CDK12, BMP2K, and STK10	CDK4, AURKA, WEE1, BLK, FER, CDK6, LIMK2, AAK1, CDK5, CDK2, ITK, CDK17, LCK, PTK2B, CDK9, CDK7, CDK13, PRKAA1, CDK12, BMP2K, STK10	21	
